From ChEMBL document CHEMBL1151785, “Oleanolic acid and its derivatives: new inhibitor of protein tyrosine phosphatase 1B with cellular activities” (Bioorg Med Chem, 2008) come the findings set out here.

The target of experiment [1] is T1, Tyrosine-protein phosphatase non-receptor type 2 (Homo sapiens, UniProt P17706).
T1 sequence (P17706 whole entry): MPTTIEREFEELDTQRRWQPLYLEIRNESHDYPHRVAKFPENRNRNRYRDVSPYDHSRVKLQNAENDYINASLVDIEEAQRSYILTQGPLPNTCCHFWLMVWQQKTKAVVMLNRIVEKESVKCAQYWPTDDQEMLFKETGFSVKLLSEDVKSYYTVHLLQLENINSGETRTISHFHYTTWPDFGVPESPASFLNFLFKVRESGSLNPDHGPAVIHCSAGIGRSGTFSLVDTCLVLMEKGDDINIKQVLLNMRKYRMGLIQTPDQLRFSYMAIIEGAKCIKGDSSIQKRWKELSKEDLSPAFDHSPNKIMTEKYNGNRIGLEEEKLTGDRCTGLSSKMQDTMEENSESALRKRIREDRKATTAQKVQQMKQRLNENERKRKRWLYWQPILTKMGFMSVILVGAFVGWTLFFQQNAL
The experiment in a line: Inhibition of TCPTP by pNPP assay.

The target of experiment [2] is T2, Tyrosine-protein phosphatase non-receptor type 1 (Homo sapiens, UniProt P18031).
T2 sequence (P18031 whole entry): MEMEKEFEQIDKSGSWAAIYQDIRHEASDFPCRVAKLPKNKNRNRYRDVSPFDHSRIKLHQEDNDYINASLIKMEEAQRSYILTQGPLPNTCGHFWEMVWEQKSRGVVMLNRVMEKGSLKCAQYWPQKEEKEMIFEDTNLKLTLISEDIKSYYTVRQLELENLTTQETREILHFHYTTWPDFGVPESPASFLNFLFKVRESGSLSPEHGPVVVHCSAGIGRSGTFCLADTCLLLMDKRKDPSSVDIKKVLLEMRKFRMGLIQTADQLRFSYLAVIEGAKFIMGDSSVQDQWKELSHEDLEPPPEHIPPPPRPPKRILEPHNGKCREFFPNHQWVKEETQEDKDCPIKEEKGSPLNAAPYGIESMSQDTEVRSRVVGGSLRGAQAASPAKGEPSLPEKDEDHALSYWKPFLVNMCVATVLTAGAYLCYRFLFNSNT
The experiment in a line: Inhibition of PTP1B by pNPP assay.

Molecules are shown by their SMILES.

Consider `CC1(C)CC[C@]2(C(=O)O)CC[C@]3(C)C(=CC[C@@H]4[C@@]5(C)CCCC(C)(C)[C@@H]5CC[C@]43C)[C@@H]2C1`, for which the values for the IC50 in experiment [1] and in experiment [2] were 3 µM and 2.61 µM, respectively. For `O=C(O)C(=O)c1ccc(OCc2ccc(COc3ccc(C(=O)C(=O)O)cc3)cc2)cc1` the same measures were 5.35 µM and 5.73 µM. Take `CC1(C)CC[C@]2(C(=O)O)CC[C@]3(C)C(=CC[C@@H]4[C@@]5(C)CCC(=O)C(C)(C)[C@@H]5CC[C@]43C)[C@@H]2C1` [OLEANONIC ACID]: the IC50 in experiment [1] is 5.63 µM; in experiment [2], 5.32 µM.

In turn, `CC1(C)CC[C@]2(C(=O)N[C@@H](CCC(=O)O)C(=O)O)CC[C@]3(C)C(=CC[C@@H]4[C@@]5(C)CC[C@H](O)C(C)(C)[C@@H]5CC[C@]43C)[C@@H]2C1` yielded an IC50 in experiment [2] of 16.4 µM. As to `COc1ccccc1CC(NC(=O)CCCC[C@]12CCC(C)(C)C[C@H]1C1=CC[C@@H]3[C@@]4(C)CC[C@H](O)C(C)(C)[C@@H]4CC[C@@]3(C)[C@]1(C)CC2)C(=O)O` (stereo not given in full), the half-inhibitory concentration (IC50) in experiment [1] was determined as 0.45 µM; in experiment [2], 0.53 µM.

On to `CC1(C)CC[C@]2(CCCCC(=O)NC(Cc3cccc(Cl)c3)C(=O)O)CC[C@]3(C)C(=CC[C@@H]4[C@@]5(C)CC[C@H](O)C(C)(C)[C@@H]5CC[C@]43C)[C@@H]2C1` (stereo not given in full), for which the figures for the IC50 in experiment [1] and in experiment [2] were 0.52 µM and 0.51 µM, respectively. Taken in the same sequence, the figures for `Cc1ccc(CC(NC(=O)CCCC[C@]23CCC(C)(C)C[C@H]2C2=CC[C@@H]4[C@@]5(C)CC[C@H](O)C(C)(C)[C@@H]5CC[C@@]4(C)[C@]2(C)CC3)C(=O)O)cc1` (stereo not given in full) were 0.66 µM and 0.65 µM.

For the molecule `Cc1ccccc1CC(NC(=O)CCCC[C@]12CCC(C)(C)C[C@H]1C1=CC[C@@H]3[C@@]4(C)CC[C@H](O)C(C)(C)[C@@H]4CC[C@@]3(C)[C@]1(C)CC2)C(=O)O` (stereo not given in full), the IC50 is 0.5 µM in experiment [1] and 0.55 µM in experiment [2]. For `C[C@H]1[C@H](C)CC[C@]2(C)CC[C@]3(C)C(=CC(=O)[C@@H]4[C@@]5(C)CC[C@@H](O)[C@](C)(C(=O)O)[C@@H]5CC[C@]43C)[C@H]12` [11-KETO BOSWELLIC ACID] the same measures were 9.45 µM and 8.04 µM. Taken in the same sequence, the figures for `C[C@H]1[C@H](C)CC[C@]2(C)CC[C@]3(C)C(=CC[C@@H]4[C@@]5(C)CC[C@@H](O)[C@](C)(C(=O)O)[C@@H]5CC[C@]43C)[C@H]12` [BOSWELLIC ACID] were more than 20 µM and more than 20 µM. For `CC1(C)CC[C@]2(CCCCC(=O)N[C@H](Cc3ccccc3)C(=O)O)CC[C@]3(C)C(=CC[C@@H]4[C@@]5(C)CC[C@H](O)C(C)(C)[C@@H]5CC[C@]43C)[C@@H]2C1` the same measures were 0.68 µM and 0.74 µM. With `CNC(=O)[C@]12CCC(C)(C)C[C@H]1C1=CC[C@@H]3[C@@]4(C)CC[C@H](O)C(C)(C)[C@@H]4CC[C@@]3(C)[C@]1(C)CC2`, the IC50 in experiment [2] worked out at 9.2 µM. As for `CC1(C)CC[C@]2(C(=O)O)CC[C@]3(C)C(=CC[C@@H]4[C@@]5(C)CC[C@H](OC(=O)CCC(=O)O)C(C)(C)[C@@H]5CC[C@]43C)[C@@H]2C1` [OLEANOLIC ACID 3-O-SUCCINATE], the IC50 in experiment [1] was 5.36 µM; in experiment [2], 5.97 µM. For `CC1(C)CC[C@]2(CCCCC(=O)N[C@@H](Cc3c[nH]c4ccccc34)C(=O)O)CC[C@]3(C)C(=CC[C@@H]4[C@@]5(C)CC[C@H](O)C(C)(C)[C@@H]5CC[C@]43C)[C@@H]2C1` the same measures were 0.59 µM and 0.59 µM.

Consider `CC1(C)CC[C@]2(CCCCCCCCCCC(=O)O)CC[C@]3(C)C(=CC[C@@H]4[C@@]5(C)CC[C@H](O)C(C)(C)[C@@H]5CC[C@]43C)[C@@H]2C1`, for which the IC50 is 0.63 µM in experiment [1] and 0.72 µM in experiment [2]. Take `COC(=O)[C@]12CCC(C)(C)C[C@H]1C1=CC[C@@H]3[C@@]4(C)CC[C@H](O)C(C)(C)[C@@H]4CC[C@@]3(C)[C@]1(C)CC2` [METHYL OLEANOLATE]: in experiment [2], the IC50 stood at 4.44 µM.

`CCOC(=O)C(=O)O[C@H]1CC[C@]2(C)[C@H]3CC=C4[C@@H]5CC(C)(C)CC[C@]5(C(=O)O)CC[C@@]4(C)[C@]3(C)CC[C@H]2C1(C)C`: the 50% inhibitory concentration (IC50) in experiment [1] came to 3.66 µM; in experiment [2], 2.89 µM. Turning to `CC1(C)CC[C@]2(C(=O)O)CC[C@]3(C)C(=CC[C@@H]4[C@@]5(C)CC[C@H](OCc6cccc(C(=O)O)c6)C(C)(C)[C@@H]5CC[C@]43C)[C@@H]2C1`, the concentration for half-maximal inhibition (IC50) in experiment [1] was determined as 0.49 µM; in experiment [2], 0.62 µM. For `CC1(C)CC[C@]2(CCCCCCCCC(=O)O)CC[C@]3(C)C(=CC[C@@H]4[C@@]5(C)CC[C@H](O)C(C)(C)[C@@H]5CC[C@]43C)[C@@H]2C1` the same measures were 0.79 µM and 0.78 µM. For `C[C@H]1[C@H](C)CC[C@]2(C(=O)O)CC[C@]3(C)C(=CC[C@@H]4[C@@]5(C)C[C@@H](O)[C@H](O)[C@@](C)(CO)[C@@H]5CC[C@]43C)[C@H]12` [ASIATIC ACID] the same measures were more than 20 µM and more than 20 µM. For `CC1(C)CC[C@]2(C(=O)O)CC[C@]3(C)C(=CC[C@@H]4[C@@]5(C)CC[C@H](OC(=O)c6ccccc6C(=O)O)C(C)(C)[C@@H]5CC[C@]43C)[C@@H]2C1` the same measures were 5 µM and 4.58 µM.

With `CC1(C)CC[C@]2(CCCCCCC(=O)O)CC[C@]3(C)C(=CC[C@@H]4[C@@]5(C)CC[C@H](O)C(C)(C)[C@@H]5CC[C@]43C)[C@@H]2C1`, the IC50 turned out to be 0.85 µM in experiment [1] and 0.88 µM in experiment [2]. For `COc1cccc(CC(NC(=O)CCCC[C@]23CCC(C)(C)C[C@H]2C2=CC[C@@H]4[C@@]5(C)CC[C@H](O)C(C)(C)[C@@H]5CC[C@@]4(C)[C@]2(C)CC3)C(=O)O)c1` (stereo not given in full) the same measures were 0.52 µM and 0.52 µM. Taken in the same sequence, the figures for `CC1(C)CC[C@]2(CCCCC(=O)NC(Cc3ccc(F)cc3)C(=O)O)CC[C@]3(C)C(=CC[C@@H]4[C@@]5(C)CC[C@H](O)C(C)(C)[C@@H]5CC[C@]43C)[C@@H]2C1` (stereo not given in full) were 0.65 µM and 0.57 µM. Consider `CC1(C)CC[C@]2(C(=O)O)CC[C@]3(C)C(=CC[C@@H]4[C@@]5(C)CC[C@H](OC(=O)C(=O)O)C(C)(C)[C@@H]5CC[C@]43C)[C@@H]2C1`, for which the half-maximal inhibitory concentration (IC50) in experiment [1] is 4.55 µM; in experiment [2] it was 2.86 µM. For `COc1cccc(CC(NC(=O)CCCC[C@]23CCC(C)(C)C[C@H]2C2=CC[C@@H]4[C@@]5(C)CC[C@H](O)C(C)(C)[C@@H]5CC[C@@]4(C)[C@]2(C)CC3)C(=O)O)c1OC` (stereo not given in full) the same measures were 0.75 µM and 0.66 µM.

Consider `CC1(C)CC[C@]2(C(=O)NCC(=O)O)CC[C@]3(C)C(=CC[C@@H]4[C@@]5(C)CC[C@H](O)C(C)(C)[C@@H]5CC[C@]43C)[C@@H]2C1`, for which, in experiment [2], the IC50 is 15.4 µM.

For the molecule `CC1(C)CC[C@]2(CCCCC(=O)N[C@@H](Cc3cnc[nH]3)C(=O)O)CC[C@]3(C)C(=CC[C@@H]4[C@@]5(C)CC[C@H](O)C(C)(C)[C@@H]5CC[C@]43C)[C@@H]2C1`, the results for the IC50 in experiment [1] and in experiment [2] were 4.31 µM and 4.62 µM, respectively. `CC1(C)CC[C@]2(C(=O)Nc3ccc(C(=O)O)cc3)CC[C@]3(C)C(=CC[C@@H]4[C@@]5(C)CC[C@H](O)C(C)(C)[C@@H]5CC[C@]43C)[C@@H]2C1` returned an IC50 in experiment [2] of 3.19 µM. `CC1(C)CC[C@]2(CCCCC(=O)NC(Cc3ccc(Cl)cc3)C(=O)O)CC[C@]3(C)C(=CC[C@@H]4[C@@]5(C)CC[C@H](O)C(C)(C)[C@@H]5CC[C@]43C)[C@@H]2C1` (stereo not given in full): the IC50 in experiment [1] was determined as 0.48 µM; in experiment [2] it was 0.61 µM.

With `CC1(C)CC[C@]2(CCCCCCCCCCCCC(=O)O)CC[C@]3(C)C(=CC[C@@H]4[C@@]5(C)CC[C@H](O)C(C)(C)[C@@H]5CC[C@]43C)[C@@H]2C1`, the IC50 worked out at 0.53 µM in experiment [1] and 0.59 µM in experiment [2]. In experiment [2], `CC1(C)CC[C@]2(C(=O)NCc3ccccc3)CC[C@]3(C)C(=CC[C@@H]4[C@@]5(C)CC[C@H](O)C(C)(C)[C@@H]5CC[C@]43C)[C@@H]2C1` yielded an IC50 of 8.1 µM. With `CC1(C)CC[C@]2(C(=O)O)CC[C@]3(C)C(=CC[C@@H]4[C@@]5(C)CC[C@H](OCc6ccccc6)C(C)(C)[C@@H]5CC[C@]43C)[C@@H]2C1`, the values for the IC50 in experiment [1] and in experiment [2] were 2.75 µM and 2.67 µM, respectively.

Turning to `CC1(C)CC[C@]2(CCCCC(=O)NC(Cc3ccc([N+](=O)[O-])cc3)C(=O)O)CC[C@]3(C)C(=CC[C@@H]4[C@@]5(C)CC[C@H](O)C(C)(C)[C@@H]5CC[C@]43C)[C@@H]2C1` (stereo not given in full), the IC50 in experiment [1] is 0.36 µM; in experiment [2], 0.45 µM.

For `CC1(C)CC[C@]2(C(N)=O)CC[C@]3(C)C(=CC[C@@H]4[C@@]5(C)CC[C@H](O)C(C)(C)[C@@H]5CC[C@]43C)[C@@H]2C1`, the midpoint of inhibition in experiment [2], the IC50, lay at 4.76 µM. `CC1(C)CC[C@]2(C(=O)OCc3ccccc3)CC[C@]3(C)C(=CC[C@@H]4[C@@]5(C)CC[C@H](O)C(C)(C)[C@@H]5CC[C@]43C)[C@@H]2C1` registered an IC50 in experiment [2] of 8.61 µM.

The molecule `CC1(C)[C@@H](O)CC[C@]2(C)[C@H]3C(=O)C=C4[C@@H]5C[C@@](C)(C(=O)O)CC[C@]5(C)CC[C@@]4(C)[C@]3(C)CC[C@@H]12` [ENOXOLONE] returned an IC50 in experiment [1] of more than 20 µM.
